Results as given in patent publication US8883798B2, “Pyrimidine compounds inhibiting the formation of nitric oxide and prostaglandin E2, method of production thereof and use thereof” (Ustav Organicke Chemie a Biochemie Akademie Ved CR, V.V.I., priority 2011, dated 2014).

What was measured:
peritoneal cells of mice = experiment: Cell viability of mouse peritoneal cells (WST-1 kit); assay type: cell-based; conditions: Table 3B, substance 50 μmol·l^−1, 24 h
Method in brief: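 C57BL/6 mouse peritoneal cells (1×10^6/mL) cultured 24 h with compounds at 50 μmol·l^−1. Viability read with WST-1 tetrazolium salt and expressed as percent of untreated control cells (100%).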

[1] = tested on: production of nitric oxide (NO); experiment: Production of nitric oxide (NO) in cultures of mouse peritoneal cells stimulated with IFN-γ plus LPS (Griess reagent); assay type: cell-based, mice; conditions: Table 3B; substance 50 μmol·l^−1; IFN-g plus LPS; 24 h
Method in brief: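 C57BL/6 mouse peritoneal cells (2×10^6/mL) stimulated with IFN-γ (5000 pg/mL) plus LPS (100 pg/mL), compounds at 50 μmol·l^−1. Nitrite measured by Griess reagent after 24 h, expressed as % of stimulated control (set 100%); IC50 is concentration reducing NO by 50%.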

[2] = tested on: production of prostaglandin E2 (PGE2); experiment: Production of prostaglandin E2 (PGE2) in cultures of mouse peritoneal cells stimulated with LPS (ELISA kit); assay type: cell-based, mice; conditions: Table 3B, 6 h
Method in brief: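 C57BL/6 mouse peritoneal cells (3×10^6/mL) stimulated with LPS (10 ng/mL). PGE2 measured by ELISA.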

Production of prostaglandins IC50 (μmol · 1^−1) average value and range of values [2] | Compound | Cell viabilities in % of the controls (peritoneal cells of mice) | Production of nitric oxide in % of the controls [1]
64.65 ± 4.88; n = 2 μmol · 1^−1 | CCCCc1c(-c2ccc(OC)cc2)nc(N)nc1-c1cc2ccccc2o1 [Substance 117] | 75.92 ± 9.72; n = 8 % of the controls | 89.91 ± 4.02; n = 6 % of the controls
52.17 ± 14.96; n = 6 μmol · 1^−1 | CCCCc1c(-c2ccccn2)nc(N)nc1-c1cc2ccccc2o1 [Substance 118] | 91.38 ± 4.41; n = 8 % of the controls | 56.53 ± 3.33; n = 8 % of the controls
71.89 ± 0.36; n = 2 μmol · 1^−1 | CCCCc1c(-c2cccnc2)nc(N)nc1-c1cc2ccccc2o1 [Substance 119] | 76.10 ± 6.23; n = 8 % of the controls | 70.13 ± 10.10; n = 6 % of the controls
83.44 ± 11.03; n = 2 μmol · 1^−1 | CCCCc1c(-c2ccncc2)nc(N)nc1-c1cc2ccccc2o1 [Substance 120] | 92.51 ± 2.77; n = 4 % of the controls | 65.32 ± 3.72; n = 4 % of the controls
62.54 ± 21.79; n = 6 μmol · 1^−1 | CCCCc1c(-c2cc3ccccc3o2)nc(N)nc1-c1cccs1 [Substance 121] | 90.22 ± 7.99; n = 12 % of the controls | 55.17 ± 7.88; n = 10 % of the controls
68.47 ± 8.71; n = 2 μmol · 1^−1 | CCCCc1c(-c2ccco2)nc(N)nc1-c1cc2ccccc2o1 [Substance 122] | 81.66 ± 4.41; n = 8 % of the controls | 35.04 ± 5.71; n = 6 % of the controls
35.10 ± 14.56; n = 4 μmol · 1^−1 | CCCCc1c(-c2ccoc2)nc(N)nc1-c1cc2ccccc2o1 [Substance 123] | 42.62 ± 11.49; n = 12 % of the controls | 11.15 ± 2.99; n = 6 % of the controls
62.48 ± 5.45; n = 2 μmol · 1^−1 | CCCCc1c(-c2ccsc2)nc(N)nc1-c1cc2ccccc2o1 [Substance 124] | 94.41 ± 9.01; n = 8 % of the controls | 33.45 ± 13.04; n = 6 % of the controls
73.07 ± 1.91; n = 2 μmol · 1^−1 | CCCCc1c(-c2cc3ccccc3o2)nc(N)nc1-c1cc2ccccc2o1 [Substance 125] | 76.82 ± 8.89; n = 8 % of the controls | 67.76 ± 6.80; n = 6 % of the controls
87.25 ± 13.99; n = 2 μmol · 1^−1 | CCCCc1c(Cl)nc(N)nc1-c1cc2ccccc2o1 [Substance 126] | 102.56 ± 5.92; n = 4 % of the controls | 78.18 ± 9.03; n = 4 % of the controls
38.26 ± 14.52; n = 8 μmol · 1^−1 | CCCCc1c(-c2ccccn2)nc(N)nc1-c1cc2ccccc2s1 [Substance 127] | 130.66 ± 2.87; n = 8 % of the controls | 40.88 ± 6.83; n = 4 % of the controls
31.10 ± 10.43; n = 4 μmol · 1^−1 | CCCCc1c(-c2cccnc2)nc(N)nc1-c1cc2ccccc2s1 [Substance 128] | 79.62 ± 4.12; n = 8 % of the controls | 64.91 ± 6.60 n = 4 % of the controls
65.97 ± 25.34; n = 2 μmol · 1^−1 | CCCCc1c(-c2ccncc2)nc(N)nc1-c1cc2ccccc2s1 [Substance 129] | 85.12 ± 0.76; n = 8 % of the controls | 63.94 ± 1.84 n = 4 % of the controls
56.31 ± 19.61; n = 8 μmol · 1^−1 | CCCCc1c(-c2cccs2)nc(N)nc1-c1cc2ccccc2s1 [Substance 130] | 130.68 ± 8.17; n = 12 % of the controls | 43.43 ± 7.18; n = 10 % of the controls
83.56 ± 5.83; n = 4 μmol · 1^−1 | CCCCc1c(-c2ccco2)nc(N)nc1-c1cc2ccccc2s1 [Substance 131] | 98.88 ± 1.65; n = 8 % of the controls | 49.76 ± 4.85; n = 4 % of the controls
20.76 ± 9.35; n = 4 μmol · 1^−1 | CCCCc1c(Cl)nc(N)nc1-c1cc2ccccc2s1 [Substance 132] | 84.08 ± 4.71; n = 8 % of the controls | 49.61 ± 6.36; n = 4 % of the controls

Production of prostaglandins IC50 (μmol · 1^−1) average value and range of values [2] | Compound | Cell viabilities in % of the controls (peritoneal cells of mice) | Production of nitric oxide in % of the controls [1]
61.74 ± 17.48; n = 2 μmol · 1^−1 | CCCCc1c(-c2ccccc2)nc(N)nc1-c1cccc2ccccc12 [Substance 133] | 110.75 ± 3.69; n = 4 % of the controls | 49.60 ± 9.26; n = 4 % of the controls
27.85 ± 10.82; n = 8 μmol · 1^−1 | CCCCc1c(-c2ccc(OC)cc2)nc(N)nc1-c1cccc2ccccc12 [Substance 134] | 93.40 ± 5.59; n = 12 % of the controls | 33.09 ± 7.25; n = 8 % of the controls
28.69 ± 0.00; n = 2 μmol · 1^−1 | CCCCc1c(-c2ccccn2)nc(N)nc1-c1cccc2ccccc12 [Substance 135] | 64.97 ± 12.85; n = 8 % of the controls | 18.45 ± 5.66; n = 6 % of the controls
72.55 ± 19.06; n = 2 μmol · 1^−1 | CCCCc1c(-c2cccnc2)nc(N)nc1-c1cccc2ccccc12 [Substance 136] | 111.00 ± 0.97; n = 4 % of the controls | 70.28 ± 3.71; n = 4 % of the controls
28.00 ± 9.43; n = 2 μmol · 1^−1 | CCCCc1c(-c2ccncc2)nc(N)nc1-c1cccc2ccccc12 [Substance 137] | 85.07 ± 1.02; n = 4 % of the controls | 58.04 ± 6.68; n = 4 % of the controls
43.57 ± 4.53; n = 2 μmol · 1^−1 | CCCCc1c(-c2ccco2)nc(N)nc1-c1cccc2ccccc12 [Substance 138] | 93.61 ± 5.46; n = 4 % of the controls | 42.92 ± 3.77; n = 4 % of the controls
18.35 ± 3.26; n = 4 μmol · 1^−1 | CCCCc1c(-c2ccoc2)nc(N)nc1-c1cccc2ccccc12 [Substance 139] | 104.41 ± 10.83; n = 8 % of the controls | 70.38 ± 4.95; n = 6 % of the controls
40.66 ± 6.87; n = 2 μmol · 1^−1 | CCCCc1c(-c2ccsc2)nc(N)nc1-c1cccc2ccccc12 [Substance 140] | 94.34 ± 2.62; n = 4 % of the controls | 30.16 ± 2.96; n = 4 % of the controls
34.2 ± 8.01; n = 4 μmol · 1^−1 | CCCCc1c(-c2cccc3ccccc23)nc(N)nc1-c1cccc2ccccc12 [Substance 141] | 107.73 ± 5.36; n = 8 % of the controls | 57.66 ± 6.53; n = 6 % of the controls
9.14 ± 2.71; n = 4 μmol · 1^−1 | CCCCc1c(Cl)nc(N)nc1-c1cccc2ccccc12 [Substance 142] | 114.07 ± 8.00; n = 8 % of the controls | 43.99 ± 6.06; n = 6 % of the controls
85.94 ± 12.69; n = 4 μmol · 1^−1 | CCCCc1c(Cl)nc(NC2CC2)nc1Cl [Substance 143] | 104.31 ± 8.28; n = 8 % of the controls | 78.33 ± 13.82; n = 6 % of the controls
0.20 ± 0.33; n = 4 μmol · 1^−1 | CCCCc1c(Cl)nc(NCc2ccco2)nc1Cl [Substance 144] | 150.27 ± 4.96; n = 8 % of the controls | 83.33 ± 11.72; n = 6 % of the controls
0.28 ± 0.23; n = 4 μmol · 1^−1 | CCCCc1c(Cl)nc(NCc2ccccc2)nc1Cl [Substance 145] | 147.31 ± 4.88; n = 8 % of the controls | 93.01 ± 9.25; n = 6 % of the controls
1.61 ± 0.27; n = 4 μmol · 1^−1 | CCCCc1c(Cl)nc(NN)nc1Cl.Cl [Substance 146] | 103.28 ± 4.62; n = 8 % of the controls | 86.28 ± 9.01; n = 6 % of the controls
80.60 ± 4.63; n = 2 μmol · 1^−1 | CCCCc1c(Cl)nc(NC(C)=O)nc1Cl [Substance 147] | 113.28 ± 8.99; n = 8 % of the controls | 15.32 ± 2.33; n = 6 % of the controls
